From US20240217911A1, “A hydroxycarboxylic acid for the treatment of cancer” (UNIVERSITÄT ZÜRICH, priority 2021, published 2024)
Entries after “also recorded” stand apart in the source; their conditions may differ.

Tests used:
Type in all cases: in vivo, mouse
CD8+ T cells = test: flow analysis of CD8+ T cells in MC-38 tumours; conditions: flow analysis in MC-38 tumor
Protocol: FIG. 17. A, MC-38 tumor volume curve (mm^3) and B, tumorweight (g) in WT mice treated with GPR84 agonist, 3-OH dodecanoic acid (3-OH Dodeca), GPR84 antagonist, GPR84 antagonist & 3-OH Dodeca or saline (Ctrl). C, Bar charts of flow analysis in tumor corresponding to the groups described in A and B. Two-way ANOVA with Dunnett's correction for multiple comparisons (A & C). Means±SEM analyzed by Kruskal-Wallis and Dunn's correction for multiple comparison (B). Experiments were performed at least twice, n=5.
(§1) Each metabolite was dissolved in dimethyl sulfoxide (DMSO) to reach the stock concentration of 100 mM. For mice injections, stock solution of each metabolite was diluted 1:500 in saline to reach final concentration of 200 uM and 200 uL/mouse were injected intraperitoneally on day 6, day 9 and day 12-post tumour cell injection. Metabolites used: 3-Hydroxydodecanedioic acid (R and S forms) (collaborators UZH), Dodecanedioic acid (Sigma), Decanoic acid (Sigma), Unidecanoic acid (Sigma), Dodecanoic acid (Sigma), Tridecanoic acid (Sigma), Tetradecanoic acid (Angene), 3-Hydroxydecanoic acid (Sigma), 3-Hydroxydodecanoic acid (Sigma), 3-Hydroxytetradecanoic acid (Angene). GPR84 receptor blockade was performed in the subcutaneous tumour model by injecting 200 uL/mouse of 200 uM of GPR84 antagonist GLPG1205 (MCE MedChemExpress).

MC-38 tumours = test: MC-38 subcutaneous CRC tumour model; conditions: for anti-tumour effect, tumour volume and weight (FIG. 15): 5-FU or both; for anti-tumour effect, tumour volume and weight (FIG. 11-13): metabolite 200 uM, 200 uL/mouse i.p. day 6, 9, 12, vs vehicle; for tumour reduction, tumor volume and weight (FIG. 17A-B): GPR84 agonist/antagonist 200 uM
Protocol: WT C57BL/6JRJ were purchased from Janvier Labs (France). All mice were kept in specific-pathogen-free conditions. Males and female littermates between 8-12 weeks were used for all the experiments. All animal experiments were performed according to Swiss animal welfare legislation and approved by the local veterinary office (Veterinaramt des Kantons Zurich). […]
For CRC injection models, MC38 cells were suspended in DMEM high glucose cell culture medium mixed 1:1 with Matrigel and 300,000 cells injected subcutaneously into the flanks, and mice euthanized […] after injection. Tumour development was measured every 3 days using a digital calliper. Tumour volume was calculated using the ellipsoid formula: 4/3*3.14*Length/2*(Width/2)^2, where the shorter dimension was used as width and depth. Mice were terminated 14 days after subcutaneous injection or when tumour volume reached 1 cm^3 or the length reached 2 cm. For the other solid tumours subcutaneous injection models, B16 melanoma cells were suspended in DMEM high glucose cell culture medium mixed 1:1 with Matrigel and 200,000 cells injected into both flanks of the animal. Lewis lung carcinoma cells LLC1.1 were suspended in DMEM high glucose cell culture medium mixed 1:1 with Matrigel and 200,000 cells injected in the right flank of a mouse. PD-1 blockade was performed in the subcutaneous tumour model by injecting of 200 μg/mouse anti-PD1(CD279) antibody (BioXCell; clone 29F.1A12) or IgG isotype control (BioXCell; clone 2a3) i.p. on days 6, 9 and 12 after subcutaneous MC-38 cells injection. 5-Fluorouracil (5-FU) was administered by i.p injections of 20 mg/kg 5-FU dissolved in DMSO at days 6, 9, and 12.
as §1

LLC1.1 lung cancer = test: LLC1.1 Lewis lung carcinoma subcutaneous tumour model; conditions: LLC.1 lung cancer; vs vehicle
Protocol: (§2) WT C57BL/6JRJ were purchased from Janvier Labs (France). All mice were kept in specific-pathogen-free conditions. Males and female littermates between 8-12 weeks were used for all the experiments. All animal experiments were performed according to Swiss animal welfare legislation and approved by the local veterinary office (Veterinaramt des Kantons Zurich).
(§3) Clostridiales strains Eubacterium hallii: DSM3353T, Faecalibacterium prausnitzii: DSM17677, Roseburia intestinalis: DSM14610T, Anaerostipes caccae: DSM14662T were obtained from PharmaBiome AG, Zurich (sometimes referred to as butyrate producers, 4 clostridia consortia CC4, or BP). All strains were cultivated at 37° C. in yeast extract, casitone and fatty acid (YCFA) medium (Lopez et al. 2012. Appl Environ Microbiol 78, 420-428). Strains were maintained under anoxic CO2 atmosphere using Hungate techniques. […] Viability of cells was confirmed using propidium iodide staining measured by flow cytometry. […]
(§4) For CRC injection models, MC38 cells were suspended in DMEM high glucose cell culture medium mixed 1:1 with Matrigel and 300,000 cells injected subcutaneously into the flanks, and mice euthanized […] after injection. Tumour development was measured every 3 days using a digital calliper. Tumour volume was calculated using the ellipsoid formula: 4/3*3.14*Length/2*(Width/2)^2, where the shorter dimension was used as width and depth. […]

B16 melanoma = B16 melanoma subcutaneous tumour model; conditions: vs vehicle
Protocol: as §2, §3, §4

| SMILES | expression of granzyme B and IFNγ by CD8+ T cells (FIG. 17C) (CD8+ T cells) | anti-tumour effect, tumour volume and weight (FIG. 15) (MC-38 tumours; 3-hydroxydodecanoic acid) | anti-tumour effect, tumour volume and weight (FIG. 14) (MC-38 tumours; 3-hydroxydodecanoic acid, anti-PD-1 or both) | anti-tumour effect, tumour volume and weight (FIG. 11-13) (MC-38 tumours) | anti-tumour effect, tumour volume and weight (FIG. 11-13) (MC-38 tumours; listed as CH3(CH2)8 CHOH—(CH2)—CO2H) | anti-tumour effect, tumour volume and weight (FIG. 16 B) (LLC1.1 lung cancer) | anti-tumour effect, tumour volume and weight (FIG. 16 A) (B16 melanoma) | tumour reduction, tumor volume and weight (FIG. 17A-B) (MC-38 tumours; 200 uL/mouse i.p. day 6, 9, 12) | tumour reduction, tumor volume and weight (FIG. 17A-B) (MC-38 tumours; 200 uL/mouse i.p. day 6, 9, 12, listed as 2-(hexylthio)pyramidine-4,6-diol) |
| --- | --- | --- | --- | --- | --- | --- | --- | --- | --- |
| CCCCCCCCCC(O)CC(=O)O (stereo not shown) [3-hydroxydodecanoic acid] | similarly increased expression of granzyme B and IFNγ by CD8+ T cells | comparable anti-tumour effect | comparable anti-tumour effect | most favourable anti-tumour effect; also recorded: anti-tumour effect of the bacterial metabolites was specifically induced by 3-hydroxydodecanoic acid | inhibited tumour growth | clear anti-tumour effect | clear anti-tumour effect | – | – |
| O=c1[nH]cc(F)c(=O)[nH]1 [5-FU, 5-fluorouracil, reference compound] | – | comparable anti-tumour effect | – | – | – | – | – | – | – |
| O=c1nc(OC[C@@H]2COCCO2)cc2n1CCc1cc(C#CC3CC3)ccc1-2 [GPR84 antagonist, reference compound] | entirely lost this anti-tumour immunological change | – | – | – | – | – | – | completely abrogated the anti-tumour effect of 3-hydroxydodecanoic acid | – |
| CCCCCCSc1nc(O)cc(=O)[nH]1 [ZQ-16, 2-(hexylthio)pyramidine-4,6-diol, reference compound] | similarly increased expression of granzyme B and IFNγ by CD8+ T cells | – | – | – | – | – | – | limit tumour growth in a model of cancer in vivo | inhibited tumour growth |
